Results as given in the NIST ThermoML archive (doi:10.1021/je7006956).

Experiments:
[1] = for mass density: 101.33 kPa, Pycnometric method; for mass density / viscosity: Liquid
[2] = cn = amount concentration of the nth substance listed, in mol/dm3; conditions: 101 kPa, Liquid, Pycnometric method

C[S+](C)[O-] [dimethyl sulfoxide]
[1]
Conditions | mass density [kg/m3] | viscosity [mPa·s]
298.15 K | 1094.75 | 1.993
303.15 K | 1090.76 | 1.801
308.15 K | 1086.06 | 1.652
313.15 K | 1080.45 | 1.516
318.15 K | 1075.26 | 1.398

O=C(c1ccccc1)N(O)c1ccccc1 [N-phenylbenzohydroxamic acid]
Conditions | Normal melting temperature [°C]
[1], Crystal, visual observation | 121.00

O=C(c1ccccc1)N(O)c1ccccc1 [N-phenylbenzohydroxamic acid] + C[S+](C)[O-]
mass density [kg/m3], [2]
Conditions | c1 = 0.0469 | c1 = 0.0938 | c1 = 0.1408 | c1 = 0.1877 | c1 = 0.2347 | c1 = 0.2816 | c1 = 0.3286 | c1 = 0.3755 | c1 = 0.4225 | c1 = 0.4694
298.15 K | 1097.23 | 1098.39 | 1098.59 | 1099.36 | 1100.14 | 1100.75 | 1101.46 | 1102.02 | 1102.75 | 1102.8
303.15 K | 1093.69 | 1094.33 | 1094.95 | 1096.03 | 1097.27 | 1098.29 | 1098.91 | 1099.88 | 1100.55 | 1100.96
308.15 K | 1089.07 | 1090.08 | 1091.61 | 1091.83 | 1093.14 | 1094.08 | 1095.64 | 1096.52 | 1097.67 | 1098.81
313.15 K | 1084.72 | 1086.26 | 1086.93 | 1087.56 | 1088.34 | 1089.59 | 1090.74 | 1091.97 | 1093.11 | 1094.24
318.15 K | 1078.8 | 1080.58 | 1081.55 | 1082.82 | 1083.33 | 1084.33 | 1085.8 | 1086.86 | 1087.92 | 1089.02
